From article PMC10303200 (ACS Central Science, 2023) come the findings set out here.

Test [1] addresses T1, Sig7-Fc (Homo sapiens, UniProt Q9Y286). Description: COIN-CaR-nMS with purified oligosaccharides listed beside the library glycans, 200 mM ammonium acetate, pH 6.9. More on the design: gene SIGLEC7; residues 1-345, human IgG1 Fc fusion and C-terminal His6, from CHO cells, MW 150 kDa. It is filed as binding.
Target sequence in this assay (Q9Y286 1-345): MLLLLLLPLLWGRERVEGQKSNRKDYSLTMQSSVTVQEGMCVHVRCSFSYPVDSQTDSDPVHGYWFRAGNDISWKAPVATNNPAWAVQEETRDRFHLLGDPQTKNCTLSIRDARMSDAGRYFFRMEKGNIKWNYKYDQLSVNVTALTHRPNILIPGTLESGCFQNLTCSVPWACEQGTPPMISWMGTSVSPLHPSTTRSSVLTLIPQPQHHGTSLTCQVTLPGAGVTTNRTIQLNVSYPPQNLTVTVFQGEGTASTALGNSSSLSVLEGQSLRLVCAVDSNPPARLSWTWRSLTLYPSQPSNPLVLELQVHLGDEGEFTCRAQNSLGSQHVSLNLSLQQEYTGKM
In test [2] the target is T1, Sig7-Fc. Description: COIN-CaR-nMS. It is filed as binding. More on the design: Siglec 7-Fc (Sig7-Fc, residue 1–345, MW 150 kDa); His6 (C); made in house; host or cells: wild-type CHO cells.
Target sequence in this assay (Q9Y286 19-345): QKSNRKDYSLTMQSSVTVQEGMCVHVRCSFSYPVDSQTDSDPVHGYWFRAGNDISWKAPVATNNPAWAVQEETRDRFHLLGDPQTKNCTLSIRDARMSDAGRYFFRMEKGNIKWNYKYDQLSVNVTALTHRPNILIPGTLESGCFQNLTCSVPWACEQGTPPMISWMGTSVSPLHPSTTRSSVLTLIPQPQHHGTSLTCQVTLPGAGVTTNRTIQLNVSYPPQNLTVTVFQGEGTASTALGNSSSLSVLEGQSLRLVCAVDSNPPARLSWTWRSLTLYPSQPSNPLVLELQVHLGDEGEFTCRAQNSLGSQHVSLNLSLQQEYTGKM
Where [3] appears, read: read-out: Kd, purified oligosaccharides in Tables S12, S13, S18, S19; SD.
Setting [4] is: SD; read-out: Kd, purified oligosaccharides in Tables S12, S13, S18, S19.
The mark [5] stands for this setting: N-glycan natural libraries and purified oligosaccharides, pH 6.9, read-out: Kd.

Take `CC(=O)NC1C(OC2C(CO)OC(OC3C(CO)OC(O)C(O)C3O)C(O)C2OC2(C(=O)O)CC(O)C(NC(C)=O)C(C(O)C(CO)OC3(C(=O)O)CC(O)C(NC(C)=O)C(C(O)C(CO)OC4(C(=O)O)CC(O)C(NC(C)=O)C(C(O)C(O)CO)O4)O3)O2)OC(CO)C(O)C1O` [GT2, GT2 oligosaccharide, α-D-GalNAc(1→4)-[α-D-Neu5Ac-(2→8)-α-D-Neu5Ac-(2→8)-α-D-Neu5Ac-(2→3)]-β-D-Gal-(1→4)-D-Glc]: at Sig7-Fc [1] (setting [3]), the Kd (usually the equilibrium constant for the complex coming apart) turned out to be 235 µM.

For the compound `CC(=O)N[C@H]1[C@H](O[C@@H]2[C@H](O[C@]3(C(=O)O)C[C@H](O)[C@@H](NC(C)=O)[C@H]([C@H](O)[C@@H](CO)O[C@]4(C(=O)O)C[C@H](O)[C@@H](NC(C)=O)[C@H]([C@H](O)[C@H](O)CO)O4)O3)[C@@H](O)[C@H](O[C@H]3[C@H](O)[C@@H](O)C(O)O[C@@H]3CO)O[C@@H]2CO)O[C@H](CO)[C@H](O)[C@@H]1O[C@@H]1O[C@H](CO)[C@H](O)[C@H](O)[C@H]1O` (stereo partly drawn) [GD1b, GD1b oligosaccharide, β-D-Gal(1→3)-α-D-GalNAc(1→4)-[α-D-Neu5Ac-(2→8)-α-D-Neu5Ac-(2→3)]-β-D-Gal-(1→4)-D-Glc], the Kd at Sig7-Fc [1] (setting [4]) came to 1220 µM.

As for “β-D-Gal(1→3)-α-D-GalNAc(1→4)-[α-D-Neu5Ac-(2→8)-α-D-Neu5Ac-(2→8)-α-D-Neu5Ac-(2→3)]-β-D-Gal-(1→4)-D-Glc [Glycan G33]”, at Sig7-Fc [2] (N-glycan natural libraries and purified oligosaccharides, pH 6.9, listed as GT1c), the Kd result is given as “weak or no binding”.

As for `CC(=O)NC1C(OC2C(CO)OC(OC3C(CO)OC(O)C(O)C3O)C(O)C2OC2(C(=O)O)CC(O)C(NC(C)=O)C(C(O)C(O)CO)O2)OC(CO)C(O)C1O` [GM2, GM2 oligosaccharide, α-D-GalNAc(1→4)-[α-D-Neu5Ac-(2→3)]-β-D-Gal-(1→4)-D-Glc], on Sig7-Fc [1] (setting [3]), the Kd was determined as 460 µM.

Regarding `CC(=O)N[C@H]1[C@H]([C@H](O)[C@H](O)CO)O[C@@](O[C@H](CO)[C@@H](O)[C@@H]2O[C@@](O[C@H]3[C@@H](O)[C@@H](CO)O[C@@H](O[C@H]4[C@H](O)[C@@H](O)C(O)O[C@@H]4CO)[C@@H]3O)(C(=O)O)C[C@H](O)[C@H]2NC(C)=O)(C(=O)O)C[C@@H]1O` (stereo partly drawn) [GD3, GD3 oligosaccharide, α-D-Neu5Ac-(2→8)-α-D-Neu5Ac-(2→3)-β-D-Gal-(1→4)-D-Glc], on Sig7-Fc [1] (setting [4]), the Kd came to 97 µM.

On to “α-D-GalNAc(1→4)-[α-D-Neu5Ac-(2→3)]-β-D-Gal-(1→4)-D-Glc [Glycan G28]”, for which the equilibrium dissociation constant (Kd) at Sig7-Fc [2] (setting [5]) stood at 460 ± 117 µM.

Compound `CC(=O)NC1C(O)CC(OC(CO)C(O)C2OC(OC(CO)C(O)C3OC(OC4C(O)C(CO)OC(OC5C(CO)OC(O)C(O)C5O)C4O)(C(=O)O)CC(O)C3NC(C)=O)(C(=O)O)CC(O)C2NC(C)=O)(C(=O)O)OC1C(O)C(O)CO` [GT3, GT3 oligosaccharide, α-D-Neu5Ac-(2→8)-α-D-Neu5Ac-(2→8)-α-D-Neu5Ac-(2→3)-β-D-Gal-(1→4)-D-Glc] yielded a Kd at Sig7-Fc [1] (SD) of 184 µM.

For “α-D-Neu5Ac-(2→8)-α-D-Neu5Ac-(2→8)-α-D-Neu5Ac-(2→3)-β-D-Gal-(1→4)-D-Glc [Glycan G27]”, on Sig7-Fc [2] (setting [5]), the Kd came out at 184 ± 41 µM.

For the compound `CC(=O)N[C@H]1[C@H](O[C@@H]2[C@H](O[C@]3(C(=O)O)C[C@H](O)[C@@H](NC(C)=O)[C@H]([C@H](O)[C@H](O)CO)O3)[C@@H](O)[C@H](O[C@H]3[C@H](O)[C@@H](O)C(O)O[C@@H]3CO)O[C@@H]2CO)O[C@H](CO)[C@H](O)[C@@H]1O[C@@H]1O[C@H](CO)[C@H](O)[C@H](O)[C@H]1O` (stereo partly drawn) [GM1, GM1 oligosaccharide, β-D-Gal(1→3)-α-D-GalNAc(1→4)-[α-D-Neu5Ac-(2→3)]-β-D-Gal-(1→4)-D-Glc], the Kd on Sig7-Fc [1] (setting [4]) was found to be 437 µM.

On to `CC(=O)N[C@H]1[C@H](O[C@@H]2[C@H](O[C@]3(C(=O)O)C[C@H](O)[C@@H](NC(C)=O)[C@H]([C@H](O)[C@@H](CO)O[C@]4(C(=O)O)C[C@H](O)[C@@H](NC(C)=O)[C@H]([C@H](O)[C@H](O)CO)O4)O3)[C@@H](O)[C@H](O[C@H]3[C@H](O)[C@@H](O)C(O)O[C@@H]3CO)O[C@@H]2CO)O[C@H](CO)[C@H](O)[C@@H]1O` (stereo partly drawn) [Glycan G29, α-D-GalNAc(1→4)-[α-D-Neu5Ac-(2→8)-α-D-Neu5Ac-(2→3)]-β-D-Gal-(1→4)-D-Glc], for which the Kd on Sig7-Fc [2] (G21 1.0 μM and G29 30 μM, read-out: Kd (COIN-CaR-nMS), two ligands) is 184 ± 5 µM; on Sig7-Fc [2] (G21 5 μM and G29 30 μM, read-out: Kd (COIN-CaR-nMS), two ligands), 240 ± 2 µM; on Sig7-Fc [2] (G21 10 μM and G29 30 μM, read-out: Kd (COIN-CaR-nMS), two ligands), 240 ± 10 µM.
